Data as given in article PMC314469, “Protein Interaction Networks by Proteome Peptide Scanning” (PLoS Biology, 2004).

Test system: Myo5 SH3 domain
Assay: SPOT analysis of cellulose-bound peptides (WISE), Myo5 SH3 domain (Dataset S4)
Format: binding, Saccharomyces cerevisiae
Details: for The normalized value in BLU units: Myo5 SH3 domain
[1] = SPOT analysis of membrane-synthesized peptides probed with Myo5 SH3 domain, normalized value
[2] = SPOT analysis of cellulose-bound peptides probed with Myo5 SH3 domain, normalized value
[3] = SPOT analysis of membrane-bound peptides, normalized value (see methods)
[4] = SPOT analysis of cellulose-bound 14-mer yeast proteome peptides, normalized value, mean where the peptide was synthesized more than once

EEKVKRTPPLPPVP
The normalized value in BLU units (SPOT analysis, Myo5 SH3) [1]: 586.7 BLU

EELARVTPLTPKEY
The normalized value in BLU units (SPOT analysis, Myo5 SH3) [1]: 181.5 BLU

EEMGMEEPQAPEAF
The normalized value in BLU units (SPOT analysis, Myo5 SH3) [2]: 127.9 BLU

EEQVKCNPNRPIYW
The normalized value in BLU units [3]: 110.0 BLU

EEQVKEKPNEPEGK
The normalized value in BLU units [4]: 134.2 BLU

EETEMLAPKLPEEN
The normalized value in BLU units (SPOT analysis, Myo5 SH3) [2]: 81.6 BLU

EFDEKLPPKKPAGP
The normalized value in BLU units [4]: 87.3 BLU

EFDLKNIPMMPAGE
The normalized value in BLU units (SPOT analysis, Myo5 SH3) [1]: 106.1 BLU

EFDMLLLPFIPSID
The normalized value in BLU units [4]: 249.2 BLU

EFIVKTIPVPPRDF
The normalized value in BLU units (SPOT analysis, Myo5 SH3) [1]: 115.3 BLU

EFLIKEDPDLPPQG
The normalized value in BLU units [3]: 175.4 BLU

EFLRKHSPKAPATG
The normalized value in BLU units (SPOT analysis, Myo5 SH3) [1]: 412.8 BLU

EFPGKKCPRLPHRN
The normalized value in BLU units (SPOT analysis, Myo5 SH3) [1]: 367.5 BLU

EFQSKSSPVPPASE
The normalized value in BLU units (SPOT analysis, Myo5 SH3) [1]: 78.8 BLU

EFSPHSTPVTPRRL
The normalized value in BLU units [4]: 114.0 BLU

EFTTREGPHQPIGN
The normalized value in BLU units [3]: 79.8 BLU

EGRCRLFPHCPLGR
The normalized value in BLU units [3]: 141.3 BLU

EGTTKVDPIIPVPE
The normalized value in BLU units [4]: 180.1 BLU

EHLQKERPKPPNKG
The normalized value in BLU units [3]: 363.6 BLU

EIAKRLQPGSPVLG
The normalized value in BLU units [3]: 172.5 BLU

EIKDRDQPAVPPSP
The normalized value in BLU units (SPOT analysis, Myo5 SH3) [1]: 108.1 BLU

EIPSKDHPYDPEKD
The normalized value in BLU units [3]: 51.8 BLU

EKEAKSEPQQPEDN
The normalized value in BLU units [3]: 139.0 BLU

EKELKEGPSSPASI
The normalized value in BLU units [3]: 208.1 BLU

EKESRHYPIKPPSP
The normalized value in BLU units [3]: 179.9 BLU

EKLIKITPDTPFGF
The normalized value in BLU units (SPOT analysis, Myo5 SH3) [1]: 205.9 BLU

EKNARGIPQAPFIE
The normalized value in BLU units [3]: 135.6 BLU

EKVFRGDPEHPAIS
The normalized value in BLU units [3]: 90.0 BLU

EKYGKDQPESPVPE
The normalized value in BLU units [3]: 143.3 BLU

ELAEFTDPSCPVSE
The normalized value in BLU units [4]: 188.9 BLU

ELDIKQGPVRPFIV
The normalized value in BLU units (SPOT analysis, Myo5 SH3) [1]: 161.2 BLU

ELDTKTIPELPFCM
The normalized value in BLU units [3]: 53.2 BLU

ELEDFAFPDTPTIV
The normalized value in BLU units [4]: 254.9 BLU

ELFTFDMPTDPSSF
The normalized value in BLU units [4]: 44.9 BLU

ELLCFLSPGKPSKG
The normalized value in BLU units (SPOT analysis, Myo5 SH3) [2]: 57.4 BLU

ELQIRYKPTPPLKK
The normalized value in BLU units [3]: 171.0 BLU

ELRDLDIPLVPSPK
The normalized value in BLU units (SPOT analysis, Myo5 SH3) [2]: 75.3 BLU

ELRKLVQPITPIIK
The normalized value in BLU units (SPOT analysis, Myo5 SH3) [2]: 170.0 BLU

ELRTLFVPLIPSVT
The normalized value in BLU units [4]: 293.5 BLU

ELYYLNDPKYPGTK
The normalized value in BLU units [4]: 0.0 BLU

ENENKKLPPAPTVF
The normalized value in BLU units (SPOT analysis, Myo5 SH3) [1]: 67.7 BLU

ENTPRPNPTQPRKP
The normalized value in BLU units [4]: 137.3 BLU

EPATLPLPGTPTLA
The normalized value in BLU units (SPOT analysis, Myo5 SH3) [2]: 61.8 BLU

EPEPLMSPVPPSSA
The normalized value in BLU units [4]: 215.2 BLU

EPIAHLFPPGPKNP
The normalized value in BLU units (SPOT analysis, Myo5 SH3) [2]: 356.3 BLU

EPPSWKPPDLPIRL
The normalized value in BLU units (SPOT analysis, Myo5 SH3) [2]: 86972.2 BLU

ERDGRGVPLGPRNH
The normalized value in BLU units [4]: 121.3 BLU

ETGVRYGPEFPLCT
The normalized value in BLU units (SPOT analysis, Myo5 SH3) [1]: 96.2 BLU

ETKKKWQPLPPEPL
The normalized value in BLU units (SPOT analysis, Myo5 SH3) [1]: 255.8 BLU

ETSLRVLPIAPKIF
The normalized value in BLU units [4]: 548.0 BLU

ETTTRETPLPPIPA
The normalized value in BLU units (SPOT analysis, Myo5 SH3) [1]: 178.3 BLU

EVENKLRPDLPVKN
The normalized value in BLU units [3]: 40.7 BLU

EVLRKYIPGEPEFL
The normalized value in BLU units (SPOT analysis, Myo5 SH3) [1]: 168.7 BLU

EWEEKLTPAGPLCP
The normalized value in BLU units [3]: 297.2 BLU

EWPGLDPPYIPLDF
The normalized value in BLU units (SPOT analysis, Myo5 SH3) [2]: 62.7 BLU

EYFPREYPKDPVSE
The normalized value in BLU units [3]: 272.2 BLU

EYSPRPSPWLPSKP
The normalized value in BLU units [3]: 73.7 BLU

FANIKREPVHPEIR
The normalized value in BLU units [4]: 188.2 BLU

FARTLKIPNEPSPG
The normalized value in BLU units [4]: 145.7 BLU

FASEKGAPFFPNKT
The normalized value in BLU units (SPOT analysis, Myo5 SH3) [1]: 358.8 BLU

FASQLRKPRAPMRN
The normalized value in BLU units (SPOT analysis, Myo5 SH3) [2]: 459.9 BLU

FAYSLGLPGAPKIK
The normalized value in BLU units (SPOT analysis, Myo5 SH3) [2]: 75.8 BLU

FEDHHITPCKPGGQ
The normalized value in BLU units [4]: 67.9 BLU

FEEDKMTPSTPVRS
The normalized value in BLU units (SPOT analysis, Myo5 SH3) [1]: 248.5 BLU

FEESMNNPLPPLPP
The normalized value in BLU units [4]: 168.9 BLU

FEKRYYVPEDPSQD
The normalized value in BLU units [4]: 120.8 BLU

FEMVFRHPEQPHMI
The normalized value in BLU units [4]: 309.9 BLU

FENLLMEPNLPFFT
The normalized value in BLU units (SPOT analysis, Myo5 SH3) [2]: 202.2 BLU

FENRKHQPFTPKGM
The normalized value in BLU units [3]: 211.2 BLU

FESFLRPPSTPDLP
The normalized value in BLU units [4]: 70.2 BLU

FESTLPIPTYPREG
The normalized value in BLU units (SPOT analysis, Myo5 SH3) [2]: 122.0 BLU
